Holding throughout (experiment): inhibition of tumour cell growth, NCI panel, 48 h
Test [1] has as its system SW-620 colon.
The test system of test [2] is ACHN renal.
The subject of test [3] is SN12C renal.
Test [4] concerns SF-539 CNS.
Test [5] has as its system OVCAR-4 ovarian.
The test system of test [6] is RPMI-8226 leukemia.
Test [7] relates to CAKI-1 renal.
For test [8], the system named is SR leukemia.
Test [9] has as its system T-47D breast.

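Protocol summary: plate cells (96-well), add compound at 5 concentrations, incubate 48 h, interpolate endpoints linearly. GI50 is the concentration that inhibits growth by half. At the TGI there is no net growth.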

Take `O=C1O[C@@H](c2ccc3c(c2)OCO3)C2C(=O)O[C@@H](c3ccc4c(c3)OCO4)C12` (stereo partly drawn): the TGI in test [1], in [2], in [3], in test [4], in test [5] and in [6] was > 100 µM each time.

On to `OCC(O)CC[CH2][Sn]([Br])([c]1ccccc1)[c]1ccccc1` (stereo not drawn), for which the GI50 in test [1], in test [2], in [7], in test [8], in [3] and in test [4] was > 100 µM each time. The GI50 in test [5] and in [6] was > 100 µM throughout. Further, the TGI in test [1], in [2], in test [7], in test [8], in [3] and in test [4] was > 100 µM throughout. Also, the TGI in [5] and in [6] was > 100 µM in each case.

As for `COC(=O)c1c/c(=N\NC(=O)CC(=O)Nc2ccccc2OC)c2ccccc2o1`, the TGI in test [1], in test [2], in test [7], in [8], in [3] and in test [4] was > 100 µM throughout. For the same molecule, the TGI in test [5] and in test [6] was > 100 µM each time.

Consider `CCCCN=C(NC#N)NCCCC`, for which the TGI was 42 µM in test [1]; > 100 µM in [2]; > 100 µM in test [7]; > 100 µM in test [8]; > 100 µM in test [3]; > 100 µM in test [4]. Also, the TGI in test [5] and in [6] was > 100 µM each time.

Consider `CCOC(=O)[C]1([Bi]([CH3])[CH3])N=NC(C(=O)OC)=C1C(=O)OC` (stereo not drawn), for which the GI50 in test [1] was 16.6 µM; in test [2], 18 µM; in test [7], 15.9 µM; in [3], 19.2 µM; in [4], 18.1 µM; in [5] it was 42.4 µM. In addition, the GI50 in [6] is 21.5 µM. In addition, the TGI in test [1] is 32.8 µM; in test [2], 32.4 µM; in test [7] it was 29.3 µM; in test [3] it was 35.8 µM; in test [4], 32.3 µM; in [5] it was > 100 µM. In test [6], this molecule yielded a TGI of 67.2 µM.

For the molecule `C/C(CC(=O)Nc1cc(Cl)c(Cl)cc1Cl)=N\NC(N)=O`, the TGI in test [1], in test [4] and in [6] was > 100 µM throughout.

Turning to `O=C(/C=C/c1c(O)ccc2ccccc12)c1cccc(O)c1`, the TGI in test [1], in test [2], in test [7], in test [8], in test [3] and in test [4] was > 100 µM each time. Besides, the TGI in test [5] and in test [6] was > 100 µM each time.

For the molecule `COC(=O)/C=C/c1cc(OC)c(OC)c(OC)c1`, the TGI in test [1], in [2], in test [7], in test [8], in [3] and in [4] was > 100 µM each time. Further, in [5], the TGI is > 100 µM.

For `CCC[CH2][Sn]([CH2]CCC)([O]C(=O)c1cccnc1SC)[O]C(=O)c1cccnc1SC`, the GI50 was 0.248 µM in [1]; 0.878 µM in [2]; 0.62 µM in test [3]; 1.2 µM in test [4]; 1.62 µM in test [5]. The TGI in test [1] amounted to 1.25 µM; in test [2] it was 2.09 µM; in test [3] it was 1.92 µM; in test [4] it was 2.49 µM; in test [5] it was 3.06 µM.

As for `O=C1CCC2(c3ccc(F)cc3)Nc3cc(Cl)ccc3N12` (stereo not drawn), the TGI in [1], in [2], in [8], in test [3], in test [4] and in test [5] was > 100 µM throughout. The TGI in test [6] is > 100 µM.

Take `Cc1cc2c(cc1C)[n+](=O)c(C(=O)C/C(=N/NC(=O)CC#N)C(=O)Nc1ccccc1C(F)(F)F)c(C)n2[O-]`: the TGI in test [1], in test [2], in [7], in test [3], in test [4] and in test [5] was > 100 µM throughout.

On to `O=C1/C(=C/c2ccccc2)CNC/C1=C\c1ccccc1`, for which the TGI was determined as 2.11 µM in test [1]; 4.37 µM in test [2]; 17.6 µM in test [7]; 0.536 µM in [8]; 3.28 µM in [3]; 3.46 µM in test [4]. Besides, the TGI in test [5] stood at 2.9 µM; in test [6], 0.787 µM.

On to `NC(CCC(=O)NC(CSSCCCCS(=O)O)C(=O)NCC(=O)O)C(=O)O` (stereo not drawn), for which the TGI in test [1], in test [2], in [7], in test [3], in [4] and in test [5] was > 100 µM throughout.

As to `CSC(C1c2ccccc2N(c2ccc(C)cc2)C2=NC(=O)N(C)C(=O)C21Cl)S(=O)(=O)c1ccc(C)cc1` (stereo not drawn), the TGI in test [1] was 85.9 µM; in test [2] it was > 100 µM; in test [7], 43.2 µM; in test [3], 58.5 µM; in test [4], 34.3 µM; in test [5] it was 34.6 µM. For the same molecule, the TGI in [6] stood at 57 µM.

In the case of `COc1ccc(/C(COc2c(-c3ccccc3)oc3ccccc3c2=O)=N\O)cc1`, the GI50 was 19.5 µM in test [1]; 10.6 µM in test [2]; 13.5 µM in test [9]; 10.6 µM in test [3]; 13.5 µM in [4]; 37.1 µM in test [5]. Moreover, the GI50 in test [6] was 21.5 µM. Further, the TGI in test [1] was > 50 µM; in [2] it was 26.3 µM; in [9], 41.6 µM; in test [3], 33.9 µM; in [4], 27.9 µM; in [5] it was > 50 µM. In addition, the TGI in [6] is > 50 µM.

Values taken from PubChem BioAssay (NCI).
